Laboratory results taken from ChEMBL document CHEMBL1147311, “Plant antimutagenic agents, 7. Structure and antimutagenic properties of cymobarbatol and 4-isocymobarbatol, new cymopols from green alga (Cymopolia barbata)” (J Nat Prod, 1989).
Calls of active or inactive are those of the source. No cut-off for these calls is given here.

What was measured:
[1] = test system: Salmonella typhimurium; experiment: Antimutagenic activity in Salmonella Typhimurium T98 assessed as inhibition of 2-aminoanthracene-induced mutation at 75 ug/plate; type: functional, organism-based; settings: Salmonella enterica subsp. enterica serovar Typhimurium
[2] = test system: Salmonella typhimurium; experiment: Toxicity in Salmonella Typhimurium T98 at 75 to 300 ug/plate in presence of histidine; type: organism-based, Salmonella enterica subsp. enterica serovar Typhimurium
[3] = test system: Salmonella typhimurium; experiment: Toxicity in Salmonella Typhimurium T100 at 75 to 300 ug/plate in presence of histidine; type: organism-based, Salmonella enterica subsp. enterica serovar Typhimurium
[4] = test system: Salmonella typhimurium; experiment: Antimutagenic activity in Salmonella Typhimurium T98 assessed as inhibition of 2-aminoanthracene-induced mutation at 300 ug/plate; type: functional, organism-based; settings: Salmonella enterica subsp. enterica serovar Typhimurium
[5] = test system: Salmonella typhimurium; experiment: Antimutagenic activity in Salmonella Typhimurium T98 assessed as inhibition of 2-aminoanthracene-induced mutation at 150 ug/plate; type: functional, organism-based; settings: Salmonella enterica subsp. enterica serovar Typhimurium
[6] = test system: Salmonella typhimurium; experiment: Antimutagenic activity in Salmonella Typhimurium T100 assessed as inhibition of ethyl methanesulfonate-induced mutation at 32.5 to 300 ug/plate in presence of Ames S9 fractions; type: functional, Salmonella enterica subsp. enterica serovar Typhimurium
[7] = test system: Salmonella typhimurium; experiment: Toxicity in Salmonella Typhimurium T98 at 75 to 600 ug/plate in presence of histidine; type: organism-based, Salmonella enterica subsp. enterica serovar Typhimurium
[8] = test system: Salmonella typhimurium; experiment: Toxicity in Salmonella Typhimurium T100 at 75 to 600 ug/plate in presence of histidine; type: organism-based, Salmonella enterica subsp. enterica serovar Typhimurium

| SMILES | Activity [1] | Activity [2] | Activity [3] | Activity [4] | Activity [5] | inhibition (INH) [6] [%] | Activity [7] | Activity [8] |
| --- | --- | --- | --- | --- | --- | --- | --- | --- |
| CC1(C)[C@@H](Br)CC[C@]2(C)Oc3cc(Br)c(O)cc3C[C@@H]12 | Active | Non-toxic | Non-toxic | Active | Active |  |  |  |
| CC1(C)[C@@H](Br)CC[C@@]2(C)Oc3cc(Br)c(O)cc3C[C@@H]12 [CYMOBARBATOL] |  | Non-toxic | Non-toxic | Active | Active | 80 |  |  |
| CC(C)=CCC/C(C)=C/Cc1cc(O)c(Br)cc1O [CYMOPOL] |  |  |  |  |  |  | Toxic | Toxic |
